These results are taken from PubChem BioAssay (NCI).

The structures appear in SMILES notation.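 Abbreviation: GI50, concentration required for 50% inhibition of growth. TGI marks complete inhibition of growth.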

Test systems include CAKI-1 renal; COLO 205 colon; DU-145 prostate; HCC-2998 colon; HL-60(TB) leukemia; HOP-62 NSCLC; KM12 colon; MALME-3M melanoma; MCF7 breast; MDA-MB-231 breast; SF-268 CNS; UACC-257 melanoma.
What all share (experiment): inhibition of tumour cell growth, NCI panel, 384-well format

In the case of `NC(=O)c1cccc2cn(-c3ccc([C@@H]4CCCNC4)cc3)nc12`, the GI50 with CAKI-1 renal was 11.1 µM; with COLO 205 colon, 11 µM; with DU-145 prostate it was 4.89 µM; in the experiment with HCC-2998 colon, 14 µM; in the experiment with HL-60(TB) leukemia it was 1.85 µM; in the experiment on HOP-62 NSCLC, 3.12 µM. Moreover, the GI50 in the experiment on KM12 colon was 14.7 µM; in the experiment with MALME-3M melanoma it was 12.8 µM; in the experiment on MCF7 breast, 6.48 µM; in the experiment on MDA-MB-231 breast, 14.7 µM; in the experiment on SF-268 CNS, 5.24 µM; with UACC-257 melanoma, 16.8 µM. The TGI turned out to be 23.3 µM in the experiment on CAKI-1 renal; 23.2 µM with COLO 205 colon; 16.1 µM with DU-145 prostate; 27.1 µM with HCC-2998 colon; 3.88 µM with HL-60(TB) leukemia; 11.3 µM in the experiment with HOP-62 NSCLC. The TGI with KM12 colon is 28.9 µM; with MALME-3M melanoma it was 25.6 µM; with MCF7 breast it was 18.8 µM; with MDA-MB-231 breast, 29 µM; in the experiment with SF-268 CNS, 20.1 µM; with UACC-257 melanoma it was 30.6 µM.
